For 16 molecules, IC50 results are on record in patent US11524966B1 (Valo Early Discovery, Inc., priority 2017, dated 2022).

The target of the assay is T1, USP28 (His-tagged USP28-FL-mammalian) (Homo sapiens, UniProt Q96RU2).
T1 construct: Expression of USP28 (1-1077)-TEV-6*His (pTT5 vector); made in house; host or cells: Expi293f cells (pTT5 vector)
T1 sequence (Q96RU2 1-1077): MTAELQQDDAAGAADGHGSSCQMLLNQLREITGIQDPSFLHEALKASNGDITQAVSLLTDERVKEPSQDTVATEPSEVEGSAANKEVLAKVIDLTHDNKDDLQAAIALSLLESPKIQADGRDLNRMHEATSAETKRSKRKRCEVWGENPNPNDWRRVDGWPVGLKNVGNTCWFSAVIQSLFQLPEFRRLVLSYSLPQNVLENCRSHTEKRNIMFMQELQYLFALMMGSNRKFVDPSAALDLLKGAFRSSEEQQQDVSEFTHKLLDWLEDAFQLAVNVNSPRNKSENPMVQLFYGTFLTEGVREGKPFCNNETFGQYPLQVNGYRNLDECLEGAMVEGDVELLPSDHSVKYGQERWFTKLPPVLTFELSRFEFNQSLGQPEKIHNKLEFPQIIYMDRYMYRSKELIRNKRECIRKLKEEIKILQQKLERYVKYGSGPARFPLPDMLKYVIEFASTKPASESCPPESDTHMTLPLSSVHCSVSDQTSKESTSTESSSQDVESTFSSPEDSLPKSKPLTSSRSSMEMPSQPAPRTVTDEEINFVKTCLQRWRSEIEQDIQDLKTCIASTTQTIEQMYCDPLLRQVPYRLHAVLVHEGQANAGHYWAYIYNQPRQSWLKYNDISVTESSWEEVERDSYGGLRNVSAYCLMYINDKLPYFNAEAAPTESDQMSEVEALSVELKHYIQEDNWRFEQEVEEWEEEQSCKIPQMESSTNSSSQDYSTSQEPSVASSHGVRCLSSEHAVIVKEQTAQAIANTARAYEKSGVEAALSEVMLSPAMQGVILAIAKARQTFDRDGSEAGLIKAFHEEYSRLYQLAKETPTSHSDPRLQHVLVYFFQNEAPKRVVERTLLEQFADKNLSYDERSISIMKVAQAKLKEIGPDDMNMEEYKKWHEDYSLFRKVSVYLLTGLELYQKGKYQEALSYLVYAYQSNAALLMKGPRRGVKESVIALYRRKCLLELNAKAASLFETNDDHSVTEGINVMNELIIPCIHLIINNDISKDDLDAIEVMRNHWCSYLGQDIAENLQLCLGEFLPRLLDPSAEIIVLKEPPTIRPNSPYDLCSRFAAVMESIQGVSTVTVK
The assay is described as follows: Ubiquitin-Rhodamine 110 Assay for USP28 Activity, Example A-1(a). The assay is classed as biochemical. The following applies: Ubiquitin-Rhodamine 110 assay, Example A-1(a); read-out: USP28 A-1(a) IC50 range. An outline of the steps: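 IC50 from 4-parameter logistic fit of percent inhibition versus no-enzyme and DMSO controls; compounds 25 μM to 1.3 nM, 3-fold. Ub-Rh110 cleavage (25 nM, below Km) by […] mammalian-expressed USP28-FL-His ran 45 min at room temperature, stopped with 10 mM citric acid, read ex 485/em 535.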

The structures appear in SMILES notation.

For `Cc1ccc2c(N)c(C(=O)N[C@H]3COc4cc(N5C[C@@H](N)CC[C@H]5C(F)(F)F)ccc4C3)sc2n1` [Example 245, 3-amino-N-[(3R)-7-[(2S,5S)-5-amino-2-(trifluoromethyl)piperidin-1-yl]-3,4-dihydro-2H-1-benzopyran-3-yl]-6-methylthieno[2,3-b]pyridine-2-carboxamide], the IC50 – broadly, the concentration at which inhibition is half-maximal – is 1 to 50 nM.

Turning to `Cc1ccc2c(N)c(C(=O)N[C@H]3COc4cc(N5C[C@@H](N)CC[C@@H]5C(F)(F)F)ccc4C3)sc2n1` [Example 246, 3-amino-N-[(3R)-7-[(2R,5S)-5-amino-2-(trifluoromethyl)piperidin-1-yl]-3,4-dihydro-2H-1-benzopyran-3-yl]-6-methylthieno[2,3-b]pyridine-2-carboxamide], the half-inhibitory concentration (IC50) is 1 to 50 nM.

In the case of `Cc1ccc2c(N)c(C(=O)N[C@H]3COc4cc(N5C[C@H](N)CC[C@H]5C(F)(F)F)ccc4C3)sc2n1` [Example 247, 3-amino-N-[(3R)-7-[(2S,5R)-5-amino-2-(trifluoromethyl)piperidin-1-yl]-3,4-dihydro-2H-1-benzopyran-3-yl]-6-methylthieno[2,3-b]pyridine-2-carboxamide], the IC50 lay in the range of 1 to 50 nM.

With `Cc1ccc2c(N)c(C(=O)N[C@H]3COc4cc(N5CC6CCC[C@@]6(N)C5)ccc4C3)sc2n1` (stereo partly drawn) [Example 248, N-[(3R)-7-[(3aS)-3a-amino-octahydrocyclopenta[c]pyrrol-2-yl]-3,4-dihydro-2H-1-benzopyran-3-yl]-3-amino-6-methylthieno[2,3-b]pyridine-2-carboxamide], the IC50 is 1 to 50 nM.

Consider `Cc1ccc2c(N)c(C(=O)N[C@H]3COc4cc(N5CC6CCC[C@]6(N)C5)ccc4C3)sc2n1` (stereo partly drawn) [Example 249, N-[(3R)-7-[(3aR)-3a-amino-octahydrocyclopenta[c]pyrrol-2-yl]-3,4-dihydro-2H-1-benzopyran-3-yl]-3-amino-6-methylthieno[2,3-b]pyridine-2-carboxamide], for which the IC50 lay in the range of 1 to 50 nM.

On to `COC[C@@H]1CN(c2cc(F)c3c(c2)OC[C@H](NC(=O)c2sc4nc(C)ccc4c2N)C3)C[C@@H]1N` [Example 250, 3-amino-N-[(3R)-7-[(3R,4R)-3-amino-4-(methoxymethyl)pyrrolidin-1-yl]-5-fluoro-3,4-dihydro-2H-1-benzopyran-3-yl]-6-methylthieno[2,3-b]pyridine-2-carboxamide], for which the IC50 lay in the range of 1 to 50 nM.

As for `COC[C@H]1CN(c2cc(F)c3c(c2)OC[C@H](NC(=O)c2sc4nc(C)ccc4c2N)C3)C[C@H]1N` [Example 251, 3-amino-N-[(3R)-7-[(3S,4S)-3-amino-4-(methoxymethyl)pyrrolidin-1-yl]-5-fluoro-3,4-dihydro-2H-1-benzopyran-3-yl]-6-methylthieno[2,3-b]pyridine-2-carboxamide], the IC50 lay within 1 to 50 nM.

As for `COC[C@@H]1CN(c2ccc3c(c2)CC[C@H](NC(=O)c2sc4nc(C)ccc4c2N)C3)C[C@@H]1N` [Example 252, 3-amino-N-[(2S)-6-[(3R,4R)-3-amino-4-(methoxymethyl)pyrrolidin-1-yl]-1,2,3,4-tetrahydronaphthalen-2-yl]-6-methylthieno[2,3-b]pyridine-2-carboxamide], the IC50 is 50 to 200 nM.

Turning to `COC[C@H]1CN(c2ccc3c(c2)CC[C@H](NC(=O)c2sc4nc(C)ccc4c2N)C3)C[C@H]1N` [Example 253, 3-amino-N-[(2S)-6-[(3S,4S)-3-amino-4-(methoxymethyl)pyrrolidin-1-yl]-1,2,3,4-tetrahydronaphthalen-2-yl]-6-methylthieno[2,3-b]pyridine-2-carboxamide], the IC50 was 1 to 50 nM.

As for `CCO[C@@H]1CN(c2ccc3c(n2)CC[C@H](NC(=O)c2sc4nc(C)ccc4c2N)C3)C[C@@H]1N` [Example 254, 3-amino-N-[(6S)-2-[(3S,4R)-3-amino-4-ethoxypyrrolidin-1-yl]-5,6,7,8-tetrahydroquinolin-6-yl]-6-methylthieno[2,3-b]pyridine-2-carboxamide], the IC50 was in the range of 50 to 200 nM.

With `CCO[C@H]1CN(c2ccc3c(n2)CC[C@H](NC(=O)c2sc4nc(C)ccc4c2N)C3)C[C@H]1N` [Example 255, 3-amino-N-[(6S)-2-[(3R,4S)-3-amino-4-ethoxypyrrolidin-1-yl]-5,6,7,8-tetrahydroquinolin-6-yl]-6-methylthieno[2,3-b]pyridine-2-carboxamide], the concentration for half-maximal inhibition (IC50) was in the range of 50 to 200 nM.

With `Cc1ccc2c(N)c(C(=O)N[C@H]3COc4cc(N5C[C@H](N)C(F)(F)C5)ccc4C3)sc2n1` [Example 256, 3-amino-N-[(3R)-7-[(4S)-4-amino-3,3-difluoropyrrolidin-1-yl]-3,4-dihydro-2H-1-benzopyran-3-yl]-6-methylthieno[2,3-b]pyridine-2-carboxamide], the IC50 is 1 to 50 nM.

With `Cc1ccc2c(N)c(C(=O)N[C@H]3COc4cc(N5C[C@@H](N)C(F)(F)C5)ccc4C3)sc2n1` [Example 257, 3-amino-N-[(3R)-7-[(4R)-4-amino-3,3-difluoropyrrolidin-1-yl]-3,4-dihydro-2H-1-benzopyran-3-yl]-6-methylthieno[2,3-b]pyridine-2-carboxamide], the IC50 is 1 to 50 nM.

`Cc1ccc2c(N)c(C(=O)N[C@H]3COc4cc(N5C[C@H](N)C6(COC6)C5)ccc4C3)sc2n1` [Example 258, 3-amino-N-[(3R)-7-[(8R)-8-amino-2-oxa-6-azaspiro[3.4]octan-6-yl]-3,4-dihydro-2H-1-benzopyran-3-yl]-6-methylthieno[2,3-b]pyridine-2-carboxamide]: the IC50 was in the range of 1 to 50 nM.

As for `Cc1ccc2c(N)c(C(=O)N[C@H]3COc4cc(N5C[C@@H](N)C6(COC6)C5)ccc4C3)sc2n1` [Example 259, 3-amino-N-[(3R)-7-[(8S)-8-amino-2-oxa-6-azaspiro[3.4]octan-6-yl]-3,4-dihydro-2H-1-benzopyran-3-yl]-6-methylthieno[2,3-b]pyridine-2-carboxamide], the IC50 lay in the range of 1 to 50 nM.

Regarding `COC[C@@H]1C[C@@H](N)CN1c1ccc2c(c1)OC[C@H](NC(=O)c1sc3nc(C)ccc3c1N)C2` [Example 260, 3-amino-N-[(3R)-7-[(25,4R)-4-amino-2-(methoxymethyl)pyrrolidin-1-yl]-3,4-dihydro-2H-1-benzopyran-3-yl]-6-methylthieno[2,3-b]pyridine-2-carboxamide], the IC50 lay in the range of 1 to 50 nM.
